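Five concentrations, 48 hours, 96-well plates. GI50 is the concentration that inhibits growth by half.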 Activity calls are given as the source filed them. Rule as the data show it: active = GI50 up to about 1.1 µM and inactive = higher. Bounds are passed on as bounds.

Seven molecules from ChEMBL document CHEMBL1201862, “PubChem BioAssay data set” (2004) can be followed below.

Common to all, as to experiment: NCI tumour cell line growth inhibition, 48 h
The subject of experiment [1] is HCT-15.
In experiment [2] the test system is Malme-3M.
In experiment [3] the test system is U-251.
Experiment [4] relates to OVCAR-3.
Experiment [5] has as its system SNB-75.
In experiment [6] the test system is SK-MEL-2.
For experiment [7], the system named is ACHN.
The subject of experiment [8] is HCT-116.
For experiment [9], the system named is UACC-257.
Experiment [10] has as its system OVCAR-4.
Experiment [11] has as its system SR.
In experiment [12] the test system is NCI-H226.
The subject of experiment [13] is KM-20L2.
Experiment [14] deals with LOX IMVI.
The test system of experiment [15] is MDA-N.
Experiment [16] deals with PC-3.
Experiment [17] deals with SW-620.
Experiment [18] deals with Hs-578T.
In experiment [19] the test system is MCF7.
Experiment [20] relates to T47D.

As for `CCOC(OCC)(OCC)C(Br)CC` (stereo unspecified), the GI50 is greater than 10 µM in experiment [1]; > 100 µM (inactive) in [2]; > 100 µM (inactive) in [3]; > 100 µM (inactive) in experiment [4]; > 100 µM (inactive) in experiment [5]; > 100 µM (inactive) in experiment [6]. Further, the GI50 in experiment [7] is > 100 µM (inactive); in experiment [8], 0.0281 µM (active); in experiment [9], > 100 µM (inactive); in experiment [10] it was > 100 µM (inactive); in experiment [11], 21.6 µM (inactive); in experiment [12], > 100 µM (inactive). Besides, the results for the GI50 in [13] and in experiment [14] were 11.8 µM (inactive) and 88.1 µM (inactive), respectively.
As to `Cc1cc(=O)oc2c(C3=NN(C=O)C(c4ccccc4)C3)c(O)ccc12` (stereo unspecified), the GI50 in experiment [1] is greater than 78.5 µM; in [2], > 71.9 µM (inactive); in experiment [15], > 54.8 µM (inactive); in experiment [3], 32.7 µM (inactive); in experiment [4] it was > 71.3 µM (inactive); in experiment [16], > 74.1 µM (inactive). Moreover, the GI50 in experiment [5] was 3.22 µM (inactive); in [6] it was 52.5 µM (inactive); in experiment [7] it was 14.8 µM (inactive); in experiment [8], 81.1 µM (inactive); in [9] it was 83.4 µM (inactive); in experiment [10] it was > 64.1 µM (inactive). Also, the GI50 was 60.1 µM (inactive) in [11]; > 76 µM (inactive) in experiment [12]; > 100 µM (inactive) in [17]; > 100 µM (inactive) in experiment [13]; 31.2 µM (inactive) in [18]; > 50.5 µM (inactive) in [19]. The GI50 in experiment [20] was > 100 µM (inactive); in experiment [14] it was > 72.4 µM (inactive).
Turning to `Cc1nc(-c2ccccc2)cc2c1c(=O)oc1ccccc12`, the GI50 was greater than 100 µM in experiment [1]; > 100 µM (inactive) in experiment [2]; > 100 µM (inactive) in experiment [3]; > 100 µM (inactive) in experiment [4]; 83.4 µM (inactive) in experiment [5]; > 100 µM (inactive) in [6]. The GI50 in experiment [7], in experiment [8], in [9], in [10], in experiment [11] and in [12] was > 100 µM (inactive) throughout. Besides, the GI50 in [17] and in [13] was > 100 µM (inactive) each time.
As to `CCN(CC)CCCC(C)Nc1c2cc(OC)cc(C)c2nc2c(C)c(Cl)ccc12` (stereo unspecified), the GI50 is 1.78 µM in experiment [1]; 1.85 µM (inactive) in experiment [2]; 1.85 µM (inactive) in experiment [3]; 1.79 µM (inactive) in [4]; 1.68 µM (inactive) in experiment [5]; 1.87 µM (inactive) in experiment [6]. Further, the GI50 was 1.69 µM (inactive) in experiment [7]; 1.86 µM (inactive) in [8]; 1.81 µM (inactive) in [9]; 1.71 µM (inactive) in experiment [10]; 2.01 µM (inactive) in experiment [11]; 1.82 µM (inactive) in experiment [12]. In addition, the GI50 was 1.85 µM (inactive) in experiment [17], 1.86 µM (inactive) in experiment [13] and 2.02 µM (inactive) in experiment [14].
Take `COc1ccc(C(=O)c2c(C(C(=O)c3ccc(OC)cc3)C(=O)c3ccc(OC)cc3)n(C(=O)c3ccc(OC)cc3)c3ccccc23)cc1`: the GI50 in experiment [1] is greater than 100 µM; in [2] it was > 100 µM (inactive); in experiment [3] it was > 100 µM (inactive); in experiment [4], > 100 µM (inactive); in [5] it was > 100 µM (inactive); in experiment [6], > 100 µM (inactive). The GI50 in [7], in [8], in experiment [10], in [11], in [12] and in experiment [17] was > 100 µM (inactive) throughout. The GI50 in experiment [13] and in experiment [14] was > 100 µM (inactive) each time.
Turning to `O=c1[nH]c(=O)n(C2OC(CO)C(O)C2O)cc1/N=N/NCc1ccccc1` (stereo unspecified), the GI50 in experiment [1] is greater than 65 µM; in [2] it was > 100 µM (inactive); in experiment [3], > 100 µM (inactive); in experiment [4], > 100 µM (inactive); in experiment [5] it was > 100 µM (inactive); in [6] it was > 100 µM (inactive). Besides, the GI50 in [7] was > 100 µM (inactive); in experiment [8], > 62.2 µM (inactive); in experiment [9], > 100 µM (inactive); in [10], > 100 µM (inactive); in experiment [11] it was > 63.2 µM (inactive); in experiment [12] it was > 100 µM (inactive). Also, the results for the GI50 in experiment [17], in experiment [13] and in [14] were > 53.5 µM (inactive), > 100 µM (inactive) and > 63.8 µM (inactive), respectively.
Take `CCCCOC(=O)NC(=O)c1cn(CCCOC(=O)CCCCCCCCC(=O)OCCCn2cc(C(=O)NC(=O)OCCCC)c(=O)n(C)c2=O)c(=O)n(C)c1=O`: the GI50 in experiment [1] was greater than 100 µM; in [2], > 100 µM (inactive); in experiment [3], > 100 µM (inactive); in [4], > 100 µM (inactive); in [5] it was 58.1 µM (inactive); in experiment [6], > 100 µM (inactive). The GI50 in experiment [7], in experiment [8], in experiment [9], in experiment [10], in experiment [11] and in [12] was > 100 µM (inactive) each time. Besides, the GI50 in experiment [17] and in experiment [13] was > 100 µM (inactive) in each case.
